Measurements from ChEMBL document CHEMBL3124792, “Discovery and preclinical characterization of the cyclopropylindolobenzazepine BMS-791325, a potent allosteric inhibitor of the hepatitis C virus NS5B polymerase” (J Med Chem, 2014).
In brackets after ≈: the same amount, converted by molar mass.

Tests used:
Cytochrome P450 3A4 = Cytochrome P450 3A4 (Homo sapiens, UniProt P08684); assay: Inhibition of CYP3A4 in human liver microsomes using benzyloxyresorufin as substrate after 30 mins in presence of NADPH; format: ADME
Cytochrome P450 2D6 = Cytochrome P450 2D6 (Homo sapiens, UniProt P10635); assay: Inhibition of CYP2D6 in human liver microsomes after 30 mins in presence of NADPH; format: ADME
Cytochrome P450 2C19 = Cytochrome P450 2C19 (Homo sapiens, UniProt P33261); assay: Inhibition of CYP2C19 in human liver microsomes after 30 mins in presence of NADPH; format: ADME
Cytochrome P450 2C9 = Cytochrome P450 2C9 (Homo sapiens, UniProt P11712); assay: Inhibition of CYP2C9 in human liver microsomes after 30 mins in presence of NADPH; format: ADME
Cytochrome P450 1A2 = target: T1, Cytochrome P450 1A2 (Homo sapiens, UniProt P05177); assay: Inhibition of CYP1A2 in human liver microsomes after 30 mins in presence of NADPH; format: ADME
T1 sequence (P05177 whole entry): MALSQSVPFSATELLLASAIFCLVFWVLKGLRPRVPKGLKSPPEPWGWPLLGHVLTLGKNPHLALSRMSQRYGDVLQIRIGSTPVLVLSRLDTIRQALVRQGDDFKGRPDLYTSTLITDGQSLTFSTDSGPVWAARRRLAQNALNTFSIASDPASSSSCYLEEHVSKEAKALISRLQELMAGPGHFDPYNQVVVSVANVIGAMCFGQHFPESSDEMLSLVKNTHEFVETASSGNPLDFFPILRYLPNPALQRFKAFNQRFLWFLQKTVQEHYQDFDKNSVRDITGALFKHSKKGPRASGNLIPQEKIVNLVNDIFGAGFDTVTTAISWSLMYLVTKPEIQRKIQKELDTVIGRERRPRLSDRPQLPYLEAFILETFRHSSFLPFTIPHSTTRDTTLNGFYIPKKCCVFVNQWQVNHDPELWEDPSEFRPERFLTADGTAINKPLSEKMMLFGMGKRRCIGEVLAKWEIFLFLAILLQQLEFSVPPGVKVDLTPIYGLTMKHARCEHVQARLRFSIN

[1] = target: Sodium channel protein type 5 subunit alpha (Homo sapiens, UniProt Q14524); assay: Inhibition of human NaV1.5 expressed in HEK293 cells by fluorescence-based thallium flux assay; format: cell-based
HepG2 = assay: Cytotoxicity against human HepG2 cells; format: cell-based
[2] = target: Voltage-gated inwardly rectifying potassium channel KCNH2 (Homo sapiens, UniProt Q12809); assay: Inhibition of human ERG by fluorescence-based thallium flux assay
[3] = Solubility of the compound in amorphous form in phosphate buffer at pH 6.5; format: physicochemical
[4] = Permeability of the compound at pH 7.4 by PAMPA; format: physicochemical; conditions: read-out: permeability
[5] = target: T2, Nuclear receptor subfamily 1 group I member 2 (Homo sapiens, UniProt O75469); assay: Transactivation of human PXR expressed in human HepG2 cells by luciferase reporter gene assay; format: cell-based
T2 sequence (O75469 whole entry): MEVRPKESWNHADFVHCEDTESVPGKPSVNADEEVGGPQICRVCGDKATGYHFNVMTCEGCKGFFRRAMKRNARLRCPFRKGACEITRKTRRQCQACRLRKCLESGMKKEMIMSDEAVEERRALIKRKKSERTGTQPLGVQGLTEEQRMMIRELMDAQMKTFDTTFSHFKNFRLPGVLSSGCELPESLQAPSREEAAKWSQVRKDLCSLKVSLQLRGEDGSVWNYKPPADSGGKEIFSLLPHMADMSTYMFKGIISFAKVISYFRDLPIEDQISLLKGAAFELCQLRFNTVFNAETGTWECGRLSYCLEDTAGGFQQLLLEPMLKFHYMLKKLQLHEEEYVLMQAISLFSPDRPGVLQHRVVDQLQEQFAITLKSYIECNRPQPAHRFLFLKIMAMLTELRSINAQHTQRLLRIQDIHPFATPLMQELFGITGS

Hepatitis C virus [6] = assay: Antiviral activity against Hepatitis C virus H77c genotype 1a infected in human HuH7 cells after 3 days by FRET assay; format: functional, organism-based, Hepacivirus hominis; conditions: genotype 1a H77, Huh-7, 72 h
Hepatitis C virus [7] = assay: Antiviral activity against Hepatitis C virus Con1 genotype 1b infected in human HuH7 cells after 3 days by FRET assay; format: functional, organism-based, Hepacivirus hominis; conditions: isolate Con1, Huh-7, 72 h
PXR (NR1I2) = target: T3, PXR (NR1I2) (Homo sapiens, UniProt O75469); assay: Transactivation of human PXR expressed in human HepG2 cells by luciferase reporter gene assay relative to control; format: cell-based; conditions: HepG2 cells expressing human PXR, read-out: %max
T3 sequence (O75469 whole entry): T2 sequence (O75469 whole entry)

Hepatitis C virus [8] = assay: Ratio of EC50 for Hepatitis C virus Con1 genotype 1b in presence of 40% human serum to EC50 for Hepatitis C virus Con1 genotype 1b; format: functional, Hepacivirus hominis, isolate Con1
[9] = Cytotoxicity against human HuH7 cells by Alamar blue assay; format: cell-based; conditions: Huh-7 cells
Hepatitis C virus [10] = assay: Antiviral activity against Hepatitis C virus Con1 genotype 1b infected in human HuH7 cells after 3 days by FRET assay in presence of 40% human serum; format: functional, organism-based, Hepacivirus hominis; conditions: isolate Con1, Huh-7, 72 h
[11] = Inhibition of HCV Con1 genotype 1b recombinant wild-type NS5B polymerase-mediated incorporation of radiolabeled nucleotides by scintillation proximity assay; parameters: species or system Hepatitis C virus (isolate Con1)
[12] = target: RNA-directed RNA polymerase (Hepacivirus hominis, UniProt O39930, P495A); assay: Inhibition of HCV Con1 genotype 1b NS5B RNA dependent RNA polymerase P495A mutant-mediated incorporation of radiolabeled nucleotides by scintillation proximity assay; parameters: species or system Hepatitis C virus (isolate Con1)
Liver microsome [13] = conditions: human, microsomes
Liver microsome [14] = conditions: rat, microsomes
[15] = Plasma concentration in rat at 10 mg/kg, po after 4 hrs; format: ADME, organism-based; parameters: dose 10 mg/kg, route oral
[16] = Drug uptake in rat liver at 10 mg/kg, po after 4 hrs; format: ADME, organism-based; parameters: dose 10 mg/kg, route oral; conditions: read-out: Drug uptake
[17] = AUC (0 to 4 hrs) in rat at 10 mg/kg, po; format: ADME, organism-based; parameters: time < 4 hr, dose 10 mg/kg, route oral; conditions: plasma
[18] = Drug uptake in rat liver at 5 mg/kg, iv after 4 hrs; format: ADME, organism-based; parameters: dose 5 mg/kg, route intravenous; conditions: read-out: Drug uptake
[19] = Plasma concentration in rat at 5 mg/kg, iv after 4 hrs; format: ADME, organism-based; parameters: dose 5 mg/kg, route intravenous
[20] = Plasma clearance in rat at 5 mg/kg, iv; format: ADME, organism-based; parameters: dose 5 mg/kg, route intravenous
[21] = AUC (0 to 4 hrs) in rat at 5 mg/kg, iv; format: ADME, organism-based; parameters: time < 4 hr, dose 5 mg/kg, route intravenous; conditions: plasma

Chain of Cytochrome P450 2D6 (P10635 whole entry): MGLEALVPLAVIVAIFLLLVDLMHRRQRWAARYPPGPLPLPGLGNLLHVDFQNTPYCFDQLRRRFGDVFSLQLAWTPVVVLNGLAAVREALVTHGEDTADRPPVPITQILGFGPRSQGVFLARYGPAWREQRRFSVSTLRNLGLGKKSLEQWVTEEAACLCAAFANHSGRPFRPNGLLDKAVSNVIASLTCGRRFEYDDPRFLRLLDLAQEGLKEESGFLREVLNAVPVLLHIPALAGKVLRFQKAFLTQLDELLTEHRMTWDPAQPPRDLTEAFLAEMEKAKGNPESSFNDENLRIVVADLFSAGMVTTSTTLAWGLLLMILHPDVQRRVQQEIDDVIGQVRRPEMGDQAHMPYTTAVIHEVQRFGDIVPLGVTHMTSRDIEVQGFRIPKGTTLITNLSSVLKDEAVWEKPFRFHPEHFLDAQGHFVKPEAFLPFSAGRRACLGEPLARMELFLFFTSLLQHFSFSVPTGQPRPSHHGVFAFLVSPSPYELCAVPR
Chain of RNA-directed RNA polymerase (O39930 entry or part of it P495A): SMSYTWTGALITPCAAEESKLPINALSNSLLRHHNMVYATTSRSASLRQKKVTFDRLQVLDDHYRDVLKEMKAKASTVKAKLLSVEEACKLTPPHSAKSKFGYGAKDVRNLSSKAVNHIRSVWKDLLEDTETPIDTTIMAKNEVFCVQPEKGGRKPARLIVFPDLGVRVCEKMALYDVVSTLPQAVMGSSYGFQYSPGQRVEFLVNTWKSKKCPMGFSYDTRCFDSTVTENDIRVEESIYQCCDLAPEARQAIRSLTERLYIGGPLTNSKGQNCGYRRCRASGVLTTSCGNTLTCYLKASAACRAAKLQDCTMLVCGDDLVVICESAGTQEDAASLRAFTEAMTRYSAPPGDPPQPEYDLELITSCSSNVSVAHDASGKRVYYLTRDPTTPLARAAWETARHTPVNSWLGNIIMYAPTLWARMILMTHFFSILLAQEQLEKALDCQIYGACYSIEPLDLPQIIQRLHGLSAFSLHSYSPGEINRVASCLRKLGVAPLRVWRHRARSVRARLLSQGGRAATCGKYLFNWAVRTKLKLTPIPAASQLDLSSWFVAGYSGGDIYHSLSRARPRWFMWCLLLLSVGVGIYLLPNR
Chain of Cytochrome P450 2C9 (P11712 whole entry): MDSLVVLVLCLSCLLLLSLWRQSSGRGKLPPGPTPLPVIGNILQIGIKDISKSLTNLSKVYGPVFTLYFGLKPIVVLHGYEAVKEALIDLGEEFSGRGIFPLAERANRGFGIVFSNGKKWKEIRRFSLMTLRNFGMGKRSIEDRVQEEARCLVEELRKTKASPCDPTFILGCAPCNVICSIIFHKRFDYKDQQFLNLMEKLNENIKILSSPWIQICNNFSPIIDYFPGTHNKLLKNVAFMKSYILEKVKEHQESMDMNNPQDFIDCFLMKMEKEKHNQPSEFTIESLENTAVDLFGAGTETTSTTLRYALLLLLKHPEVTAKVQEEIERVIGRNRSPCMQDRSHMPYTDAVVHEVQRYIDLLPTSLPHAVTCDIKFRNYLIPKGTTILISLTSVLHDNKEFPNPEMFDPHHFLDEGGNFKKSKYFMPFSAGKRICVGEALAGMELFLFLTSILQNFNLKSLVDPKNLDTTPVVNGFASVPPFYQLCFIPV
Chain of Cytochrome P450 2C19 (P33261 whole entry): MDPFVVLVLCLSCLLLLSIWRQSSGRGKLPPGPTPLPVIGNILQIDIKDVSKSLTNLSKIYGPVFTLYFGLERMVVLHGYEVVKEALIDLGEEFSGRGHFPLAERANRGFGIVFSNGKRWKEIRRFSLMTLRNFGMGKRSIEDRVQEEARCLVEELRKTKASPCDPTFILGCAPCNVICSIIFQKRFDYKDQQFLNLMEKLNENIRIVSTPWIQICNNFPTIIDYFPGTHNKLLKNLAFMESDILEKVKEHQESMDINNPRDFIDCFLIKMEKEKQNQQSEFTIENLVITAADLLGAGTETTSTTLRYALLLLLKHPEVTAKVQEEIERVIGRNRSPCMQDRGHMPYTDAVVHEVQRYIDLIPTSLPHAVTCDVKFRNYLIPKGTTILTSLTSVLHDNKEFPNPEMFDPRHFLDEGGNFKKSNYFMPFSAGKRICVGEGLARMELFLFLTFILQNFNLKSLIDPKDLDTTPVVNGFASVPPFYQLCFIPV
Chain of Voltage-gated inwardly rectifying potassium channel KCNH2 (Q12809 whole entry): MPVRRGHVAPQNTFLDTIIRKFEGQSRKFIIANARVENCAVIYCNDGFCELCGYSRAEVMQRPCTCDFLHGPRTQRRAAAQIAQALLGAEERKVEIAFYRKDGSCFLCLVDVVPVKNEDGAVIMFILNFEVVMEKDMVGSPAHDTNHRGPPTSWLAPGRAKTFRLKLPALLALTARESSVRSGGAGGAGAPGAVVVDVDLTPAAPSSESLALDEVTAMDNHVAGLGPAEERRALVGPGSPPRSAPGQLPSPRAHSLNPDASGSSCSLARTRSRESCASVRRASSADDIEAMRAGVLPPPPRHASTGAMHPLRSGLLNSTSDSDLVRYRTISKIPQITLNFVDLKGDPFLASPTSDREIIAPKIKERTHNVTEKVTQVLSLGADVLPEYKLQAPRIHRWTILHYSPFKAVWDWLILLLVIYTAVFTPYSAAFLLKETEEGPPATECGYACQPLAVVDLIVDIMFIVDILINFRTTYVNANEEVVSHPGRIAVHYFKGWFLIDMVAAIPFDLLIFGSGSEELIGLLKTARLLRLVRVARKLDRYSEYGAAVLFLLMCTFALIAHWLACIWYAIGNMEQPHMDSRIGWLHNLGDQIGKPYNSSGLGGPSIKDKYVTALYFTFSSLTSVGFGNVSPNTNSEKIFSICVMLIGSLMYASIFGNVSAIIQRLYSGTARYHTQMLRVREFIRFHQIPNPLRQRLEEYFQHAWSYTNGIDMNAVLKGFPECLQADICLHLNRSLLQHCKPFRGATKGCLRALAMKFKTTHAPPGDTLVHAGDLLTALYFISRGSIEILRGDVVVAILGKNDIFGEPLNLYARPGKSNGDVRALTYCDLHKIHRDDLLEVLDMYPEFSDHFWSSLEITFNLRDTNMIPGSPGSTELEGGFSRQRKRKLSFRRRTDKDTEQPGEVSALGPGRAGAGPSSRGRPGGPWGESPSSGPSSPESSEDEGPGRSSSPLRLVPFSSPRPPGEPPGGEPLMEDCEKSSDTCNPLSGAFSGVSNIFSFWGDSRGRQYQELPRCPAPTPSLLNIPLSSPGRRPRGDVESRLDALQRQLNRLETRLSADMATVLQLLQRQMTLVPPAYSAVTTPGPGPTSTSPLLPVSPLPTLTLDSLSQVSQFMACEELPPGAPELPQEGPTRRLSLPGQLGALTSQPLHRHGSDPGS
Chain of Cytochrome P450 3A4 (P08684 whole entry): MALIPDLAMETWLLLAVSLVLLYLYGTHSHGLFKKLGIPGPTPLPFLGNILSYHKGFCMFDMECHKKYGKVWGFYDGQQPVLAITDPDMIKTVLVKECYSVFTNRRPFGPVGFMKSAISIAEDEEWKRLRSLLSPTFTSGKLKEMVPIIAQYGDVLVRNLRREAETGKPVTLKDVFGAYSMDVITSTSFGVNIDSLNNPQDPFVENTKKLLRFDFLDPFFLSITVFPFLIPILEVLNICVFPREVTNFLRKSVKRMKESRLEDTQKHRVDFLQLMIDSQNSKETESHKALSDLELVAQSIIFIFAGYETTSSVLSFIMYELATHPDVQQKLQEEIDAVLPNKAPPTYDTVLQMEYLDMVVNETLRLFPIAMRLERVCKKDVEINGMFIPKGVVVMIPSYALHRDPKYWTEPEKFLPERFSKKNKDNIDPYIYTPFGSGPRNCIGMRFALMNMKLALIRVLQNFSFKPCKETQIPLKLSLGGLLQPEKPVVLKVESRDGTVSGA

solubility [3] [µg/mL] | Papp [4] [×10⁻⁶ cm/s] | EC50 [5] [nM] | Stability (Liver microsome [13]) [%] | Stability (Liver microsome [14]) [%] | concentration at 4 h [15] [nM] | concentration at 4 h [16] [nM] | SMILES | EC50 (Cytochrome P450 3A4) [nM] | EC50 (Cytochrome P450 2D6) [nM] | EC50 (Cytochrome P450 2C19) [nM] | EC50 (Cytochrome P450 2C9) [nM] | EC50 (Cytochrome P450 1A2) [nM] | EC50 (HepG2) [nM] | EC50 [2] [nM] | EC50 (Hepatitis C virus [6]) [nM] | EC50 (Hepatitis C virus [7]) [nM] | CC50 [9] [nM] | EC50 (Hepatitis C virus [10]) [nM] | IC50 [11] [nM] | EC50 [12] [nM] | further results
93 (≈ 150 µM) | 30 | > 50000 | 81 | 85 | 25 | 3700 | COc1ccc2c(c1)C1CC1(C(=O)N1CC(C)(O)C1)Cn1c-2c(C2CCCCC2)c2ccc(C(=O)NS(=O)(=O)N(C)C)cc21 (racemic) |  |  |  |  |  |  |  | 14 | 20 | > 10000 | 56 |  |  | AUC(0-t) at 4 h [17]: 0.139 µM·h; concentration at 4 h [18]: 9600 nM; concentration at 4 h [19]: 29 nM; clearance [20]: 14 mL/min/kg; AUC(0-t) at 4 h [21]: 9.8 µM·h
34 (≈ 51.4 µM) | 48 | > 50000 | 88 | 99 | 158 | 9700 | COc1ccc2c(c1)C1CC1(C(=O)N1C[C@@H](C)N(C)[C@@H](C)C1)Cn1c-2c(C2CCCCC2)c2ccc(C(=O)NS(=O)(=O)N(C)C)cc21 (mixture of isomers) |  |  |  |  |  |  |  | 14 | 17 | 8000 | 46 |  |  | AUC(0-t) at 4 h [17]: 0.516 µM·h; concentration at 4 h [18]: 1860 nM; concentration at 4 h [19]: 67 nM; clearance [20]: 29 mL/min/kg; AUC(0-t) at 4 h [21]: 4.29 µM·h
17 (≈ 24.6 µM) | 48 | > 50000 | 100 | 93 | 14 | 345 | COc1ccc2c(c1)C1CC1(C(=O)N1C[C@@H](C)N(C(C)=O)[C@@H](C)C1)Cn1c-2c(C2CCCCC2)c2ccc(C(=O)NS(=O)(=O)N(C)C)cc21 (mixture of isomers) |  |  |  |  |  |  |  | 24 | 38 | > 10000 | 35 |  |  | AUC(0-t) at 4 h [17]: 0.277 µM·h; concentration at 4 h [18]: 126 nM; concentration at 4 h [19]: 9 nM; clearance [20]: 37 mL/min/kg; AUC(0-t) at 4 h [21]: 3.84 µM·h

The remaining lines, values behind:

SMILES | solubility [3] [µg/mL] | Papp [4] [×10⁻⁶ cm/s] | EC50 [5] [nM] | Stability (Liver microsome [13]) [%] | Stability (Liver microsome [14]) [%] | concentration at 4 h [15] [nM] | concentration at 4 h [16] [nM] | EC50 (Cytochrome P450 3A4) [nM] | EC50 (Cytochrome P450 2D6) [nM] | EC50 (Cytochrome P450 2C19) [nM] | EC50 (Cytochrome P450 2C9) [nM] | EC50 (Cytochrome P450 1A2) [nM] | EC50 (HepG2) [nM] | EC50 [2] [nM] | EC50 (Hepatitis C virus [6]) [nM] | EC50 (Hepatitis C virus [7]) [nM] | CC50 [9] [nM] | EC50 (Hepatitis C virus [10]) [nM] | IC50 [11] [nM] | EC50 [12] [nM] | further results
CCN1CC2CC(C1)N2C(=O)[C@]12C[C@H]1c1cc(OC)ccc1-c1c(C3CCCCC3)c3ccc(C(=O)NS(=O)(=O)N(C)C)cc3n1C2 | 450 (≈ 682 µM) | 27 | > 50000 |  |  |  |  | 9000 | > 40000 | > 40000 | > 40000 | > 40000 | 19000 | 6000 | 4 | 4 |  |  |  |  | EC50 [1]: 29000 nM
COC[C@H]1CN(C(=O)[C@]23C[C@H]2c2cc(OC)ccc2-c2c(C4CCCCC4)c4ccc(C(=O)NS(=O)(=O)N(C)C)cc4n2C3)CCO1 |  |  | > 50000 |  |  |  |  |  |  |  |  |  |  |  | 6 | 12 | > 10000 | 36 |  |  | Emax (PXR (NR1I2)): 12%; Ratio EC50 (Hepatitis C virus [8]): 3
O=C(O)c1ccc2c(C3CCCCC3)c3n(c2c1)C[C@@]1(C(=O)N2CCOCC2)C[C@H]1c1ccccc1-3 |  |  |  |  |  |  |  |  |  |  |  |  |  |  | 41 | 51 | > 10000 | 484 | 22 | 380 | 
COc1ccc2c(c1)C1CC1(C(=O)N1C3CNCC1C3)Cn1c-2c(C2CCCCC2)c2ccc(C(=O)NS(=O)(=O)N(C)C)cc21 (racemic) |  | 6 | > 50000 | 97 | 100 |  |  | > 40000 | > 40000 | > 40000 | > 40000 | > 40000 | > 50000 | 32000 | 23 | 80 | > 10000 | 94 |  |  | 
COc1ccc2c(c1)C1CC1(C(=O)N1C3CC1CN(Cc1ccccc1)C3)Cn1c-2c(C2CCCCC2)c2ccc(C(=O)NS(=O)(=O)N(C)C)cc21 (racemic) |  | 56 | 2000 | 80 | 100 |  |  | 13000 | > 40000 | 31000 | 7000 | > 13000 | 22000 | > 80000 | 35 | 162 | > 10000 |  |  |  | Emax (PXR (NR1I2)): 22%
CN(C)S(=O)(=O)NC(=O)c1ccc2c(C3CCCCC3)c3n(c2c1)CC1(C(=O)N2CCOCC2)CC1c1ccccc1-3 (racemic) |  |  |  |  |  |  |  |  |  |  |  |  |  |  | 44 | 82 | > 10000 | 821 | 94 | 165 | 
COc1ccc2c(c1)C1CC1(C(=O)N1CCOCC1)Cn1c-2c(C2CCCCC2)c2ccc(C(=O)NS(=O)(=O)N(C)C)cc21 (racemic) |  |  |  |  |  |  |  |  |  |  |  |  |  |  | 54 | 61 | > 10000 | 300 | 22 | 385 | 
